In US7563813B2, “Iminothiazolidinone derivatives as SFRP-1 antagonists” (Wyeth, priority 2005, dated 2009):

Biological target: T1, hSFRP-1 (Homo sapiens, UniProt Q8N474)
T1 construct: expressed in transfected cells; host or cells: U2OS osteosarcoma cells (ATCC, HTB 96), transient co-transfection with Wnt 3, Wnt3A or Wnt 1, 16x TCF-tk-Luciferase reporter and CMV-beta-gal
T1 sequence (Q8N474 32-314): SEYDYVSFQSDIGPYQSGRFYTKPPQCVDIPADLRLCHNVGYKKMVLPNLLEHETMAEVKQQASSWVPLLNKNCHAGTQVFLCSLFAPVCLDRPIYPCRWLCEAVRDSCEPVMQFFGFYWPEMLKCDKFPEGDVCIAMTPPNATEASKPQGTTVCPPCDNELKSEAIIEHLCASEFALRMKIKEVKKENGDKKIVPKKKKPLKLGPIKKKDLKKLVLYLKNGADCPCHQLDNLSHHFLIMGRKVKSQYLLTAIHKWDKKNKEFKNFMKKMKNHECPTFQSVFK
Test: Cell-Based Assay for In Vitro Measurement of SFRP-1/SARP2 Antagonist Activity (U2OS cells, 16x TCF-tk-Luciferase reporter, Wnt + hSFRP-1 co-transfection)
Conditions: initial single dose screening at 10 μM; for Ratio: ratio not defined
Description: Cell-Based Assay for In Vitro Measurement of SFRP-1/SARP2 Antagonist Activity
The following cell-based assay can be used to identify inhibitors of SFRP-1.
The osteosarcoma cell line, U2OS (ATCC, HTB 96), was passaged twice a week with growth medium (McCoy's SA medium containing 10% (v/v) fetal calf serum, 2 mM GlutaMAX-1, and 1% (v/v) Penicillin-Streptomycin). The cells were maintained in vented flasks at 37° C. inside a 5% CO2/95% humidified air incubator. One day prior to transfection, the cells were plated with growth medium at 25,000 cells/well into 96-well plates and incubated at 37° C. overnight.
The growth medium was removed, and the cells were washed once with OPTIMEM I (Gibco-BRL) medium (100 μl/well) to remove the serum and antibiotics. The wash medium was removed, and the cells were re-fed with OPTI-MEM I medium (100 μl/well). For each well of cells to be transfected, the following DNA's were diluted together in 25 μl OPTI-MEM I medium: 0.1 μg 16× TCF-tk-Luciferase reporter, 0.02 μg Wnt 3, Wnt3A, Wnt 1 or empty vector (Upstate Biotechnology), 0.075 μg hSFRP-1 or empty vector (pcDNA3.1, Invitrogen), and 0.025 μg CMV-®gal (Clonetech). For each well of cells to be transfected, 1 μl of Lipofectamine 2000 reagent (Invitrogen) was diluted in 25 μl OPTI-MEM I medium and incubated at room temperature for 5 minutes. The diluted DNA's were then combined with the diluted Lipofectamine 2000 (LF2000), and the mixture was incubated at room temperature for 20 minutes. Fifty μl of the DNA-LF 2000 mixture was added to each well, and the plate(s) were incubated at 37° C. in a 5% CO2/95% humidified air incubator for 4 hours. The cells were washed once with 150 μl/well of experimental medium (phenol red-free RPMI Medium 1640 containing 2% fetal bovine serum, 2 mM GlutaMAX-1, and 1% Penicillin-Streptomycin). Finally, the cells were treated overnight at 37° C. with 200 μl/well of experimental medium containing either vehicle (typically DMSO) or diluted compound in replicates of 8 wells/compound.
Initial single dose screening of test compounds was done at 10 μM.
Dose-response experiments were initially performed with the compounds in log increases from 1-10,000 nM. From these dose-response curves, EC50 values were generated.
After treatment, the cells were washed twice with 150 μl/well of PBS without calcium or magnesium and were lysed with 50 μl/well of 1× cell culture lysis reagent (Promega Corporation) on a shaker at room temperature for 30 minutes. Thirty μl aliquots of the cell lysates were transferred to 96-well luminometer plates, and luciferase activity was measured in a MicroLumat PLUS luminometer (EG&G Berthold), or a Victor (PerkinElmer Life Sciences) using […] of luciferase substrate (Promega Corporation). Following the injection of substrate, luciferase activity was measured for 10 seconds after a 1.6 second delay. Similarly, 10 μl aliquots of the cell lysates were transferred to separate 96-well luminometer plates, and 50 μl of Galacton chemiluminescent substrate (Tropix) was added to each well. The plates were covered and incubated on a rotary shaker at room temperature for one hour. ®gal activity was measured in a MicroLumat PLUS luminometer or Victor using 100 μl/well of Light Emission Accelerator (Tropix). Following the injection of the accelerator, ®gal activity was measured for 10 seconds after a 1.6 second delay. The luciferase and ®gal activity data were transferred from the luminometer to a PC and analyzed using the SAS/Excel program. After the luciferase activity was normalized to ®gal, the SAS/Excel program was used to determine the mean and standard deviation of each treatment, to analyze the data for statistical significance, and to determine EC50 values.
As an alternative to co-transfection in a 96 well plate, the U2OS cells were transfected in T225 flasks and the transfected cells were frozen. The frozen cells were thawed and plated on a 96 well plate and the assay was carried out as detailed above. […]

[1] = luciferase reporter activity, fold induction over SFRP-1 control

Row | Structure (SMILES) | fold induction at 10 µM [1] | Ratio | Fold induction with SFRP-1 [1]
1 | N=C1NC(=O)C(CC(=O)Nc2cccc([N+](=O)[O-])c2)S1 (stereo not drawn) [Example 29, 2-(2-imino-4-oxo-1,3-thiazolidin-5-yl)-N-(3-nitrophenyl)acetamide] | 1.7 | 1.4 | –
2 | CC(=O)c1cccc(NC(=O)CC2SC(=N)NC2=O)c1 (stereo not drawn) [Example 30, N-(3-acetylphenyl)-2-(2-imino-4-oxo-1,3-thiazolidin-5-yl)acetamide] | 1.2 | 1.1 | –
3 | N=C1NC(=O)C(CC(=O)Nc2cccc(OC(F)(F)F)c2)S1 (stereo not drawn) [Example 31, 2-(2-imino-4-oxo-1,3-thiazolidin-5-yl)-N-[3-(trifluoromethoxy)phenyl]acetamide] | 1.7 | 1.5 | –
4 | N=C1NC(=O)C(CC(=O)Nc2sc3c(c2C(N)=O)CCCC3)S1 (stereo not drawn) [Example 32, 2-{[(2-imino-4-oxo-1,3-thiazolidin-5-yl)acetyl]amino}-4,5,6,7-tetrahydro-1-benzothiophene-3-carboxamide] | 1 | 1.1 | –
5 | COC(=O)c1c(NC(=O)CC2SC(=N)NC2=O)sc2c1CCC(OC)C2 (stereo not drawn) [Example 37, methyl 2-{[(2-imino-4-oxo-1,3-thiazolidin-5-yl)acetyl]amino}-6-methoxy-4,5,6,7-tetrahydro-1-benzothiophene-3-carboxylate] | 1.5 | 1.7 | –
6 | COC(=O)c1c(NC(=O)CC2SC(=N)NC2=O)sc2c1CCCC2 (stereo not drawn) [Example 38, methyl 2-{[(2-imino-4-oxo-1,3-thiazolidin-5-yl)acetyl]amino}-4,5,6,7-tetrahydro-1-benzothiophene-3-carboxylate] | 1.3 | 1.4 | –
7 | COC(=O)c1sc(C(C)(C)C)cc1NC(=O)CC1SC(=N)NC1=O (stereo not drawn) [Example 42, methyl 5-tert-butyl-3-{[(2-imino-4-oxo-1,3-thiazolidin-5-yl)acetyl]amino}thiophene-2-carboxylate] | 1.5 | 1.7 | –
8 | N#Cc1c(NC(=O)CC2SC(=N)NC2=O)sc2c1CCCC2 (stereo not drawn) [Example 49, N-(3-cyano-4,5,6,7-tetrahydro-1-benzothien-2-yl)-2-(2-imino-4-oxo-1,3-thiazolidin-5-yl)acetamide] | 1.6 | 1.2 | –
9 | COC(=O)c1ccccc1NC(=O)CC1SC(=N)NC1=O (stereo not drawn) [Example 50, methyl 2-{[(2-imino-4-oxo-1,3-thiazolidin-5-yl)acetyl]amino}benzoate] | 1.1 | 1.0 | –
10 | COC(=O)c1cc(Cl)ccc1NC(=O)CC1SC(=N)NC1=O (stereo not drawn) [Example 52, methyl 5-chloro-2-{[(2-imino-4-oxo-1,3-thiazolidin-5-yl)acetyl]amino}benzoate] | 1.1 | 1.1 | –
11 | COC(=O)c1cc(OC)c(OC)cc1NC(=O)CC1SC(=N)NC1=O (stereo not drawn) [Example 53, methyl 2-{[(2-imino-4-oxo-1,3-thiazolidin-5-yl)acetyl]amino}-4,5-dimethoxybenzoate] | 1 | 1.0 | –
12 | CC(C)(C)OC(=O)c1cc(-c2ccccc2)sc1NC(=O)CC1SC(=N)NC1=O (stereo not drawn) [Example 55, tert-butyl 2-{[(2-imino-4-oxo-1,3-thiazolidin-5-yl)acetyl]amino}-5-phenylthiophene-3-carboxylate] | 1.2 | 0.9 | –

Other lines, results leading:

Row | fold induction at 10 µM [1] | Ratio | Fold induction with SFRP-1 [1] | Structure (SMILES)
13 | 1.5 | 1.7 | – | CCOC(=O)c1cc(CC)sc1NC(=O)CC1SC(=N)NC1=O (stereo not drawn) [Example 33, ethyl 5-ethyl-2-{[(2-imino-4-oxo-1,3-thiazolidin-5-yl)acetyl]amino}thiophene-3-carboxylate]
14 | 1.2 | 1.3 | – | COC(=O)c1ccsc1NC(=O)CC1SC(=N)NC1=O (stereo not drawn) [Example 34, methyl 2-{[(2-imino-4-oxo-1,3-thiazolidin-5-yl)acetyl]amino}thiophene-3-carboxylate]
15 | 1.4 | 1.6 | – | CCOC(=O)c1c(NC(=O)CC2SC(=N)NC2=O)sc2c1CCCC2 (stereo not drawn) [Example 35, ethyl 2-{[(2-imino-4-oxo-1,3-thiazolidin-5-yl)acetyl]amino}-4,5,6,7-tetrahydro-1-benzothiophene-3-carboxylate]
16 | 1.5 | 1.9 | – | CCOC(=O)c1c(NC(=O)CC2SC(=N)NC2=O)sc2c1CCCCC2 (stereo not drawn) [Example 36, ethyl 2-{[(2-imino-4-oxo-1,3-thiazolidin-5-yl)acetyl]amino}-5,6,7,8-tetrahydro-4H-cyclohepta[b]thiophene-3-carboxylate]
17 | 1 | 1.0 | – | COC(=O)c1scc(C)c1NC(=O)CC1SC(=N)NC1=O (stereo not drawn) [Example 43, methyl 3-{[(2-imino-4-oxo-1,3-thiazolidin-5-yl)acetyl]amino}-4-methylthiophene-2-carboxylate]
18 | 1.6 | 1.5 | – | CCOC(=O)c1c(NC(=O)CC2SC(=N)NC2=O)sc2c1CCC2 (stereo not drawn) [Example 44, ethyl 2-{[(2-imino-4-oxo-1,3-thiazolidin-5-yl)acetyl]amino}-5,6-dihydro-4H-cyclopenta[b]thiophene-3-carboxylate]
19 | – | 1.0 | 1.1 fold | CCOC(=O)c1c(-c2ccccc2)csc1NC(=O)CC1SC(=N)NC1=O (stereo not drawn) [Example 45, ethyl 2-{[(2-imino-4-oxo-1,3-thiazolidin-5-yl)acetyl]amino}-4-phenyIthiophene-3-carboxylate]
20 | 1.1 | 1.0 | – | CCOC(=O)c1c(-c2ccco2)csc1NC(=O)CC1SC(=N)NC1=O (stereo not drawn) [Example 46, ethyl 4-(2-furyl)-2-{[(2-imino-4-oxo-1,3-thiazolidin-5-yl)acetyl]amino}thiophene-3-carboxylate]
21 | 1.1 | 1.0 | – | CCOC(=O)c1c(-c2ccc(F)cc2)csc1NC(=O)CC1SC(=N)NC1=O (stereo not drawn) [Example 47, ethyl 4-(4-fluorophenyl)-2-{[(2-imino-4-oxo-1,3-thiazolidin-5-yl)acetyl]amino}thiophene-3-carboxylate]
22 | 1.6 | 1.8 | – | CCOC(=O)c1c(NC(=O)CC2SC(=N)NC2=O)sc(C)c1-c1ccccc1 (stereo not drawn) [Example 48, ethyl 2-{[(2-imino-4-oxo-1,3-thiazolidin-5-yl)acetyl]amino}-5-methyl-4-phenylthiophene-3-carboxylate]
23 | 1.1 | 1.1 | – | CCOC(=O)c1ccccc1NC(=O)CC1SC(=N)NC1=O (stereo not drawn) [Example 51, ethyl 2-{[(2-imino-4-oxo-1,3-thiazolidin-5-yl)acetyl]amino}benzoate]
24 | 2.6 | 2.6 | – | CCOC(=O)c1c(NC(=O)CC2SC(=N)NC2=O)sc(Br)c1C (stereo not drawn) [Example 54, Ethyl 5-bromo-2-{[(2-imino-4-oxo-1,3-thiazolidin-5-yl)acetyl]amino}-4-methylthiophene-3-carboxylate]
